What was measured:
[1] = molecular target: T1, bovine beta-2 adrenoceptor (Bos taurus, UniProt Q28044); assay: cAMP assay in CHO cells transfected with the bovine beta-2 adrenoceptor (DiscoveRx Hit Hunter cAMP II); assay type: cell-based; conditions: CHO cells transfected with bovine beta-2 adrenoceptor, 30 minutes incubation with compound
T1 construct: expressed in transfected cells; host or cells: CHO cells
Method in brief: (§1)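 CHO cells expressing porcine or bovine β2 receptor pre-incubated 30 min with 0.5 mM IBMX, then exposed to compound (5×10^−12 to 10^−5 M) for 30 min at 37 °C. cAMP read by enzyme-fragment complementation kit; duplicate samples, EC50 from curve fitting.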

[2] = molecular target: T2, porcine beta-2 adrenoceptor (Sus scrofa, UniProt Q28997); assay: cAMP assay in CHO cells transfected with the porcine beta-2 adrenoceptor (DiscoveRx Hit Hunter cAMP II); assay type: cell-based; conditions: CHO cells transfected with porcine beta-2 adrenoceptor, 30 minutes incubation with compound
T2 construct: expressed in transfected cells; host or cells: CHO cells
T2 sequence (Q28997 whole entry): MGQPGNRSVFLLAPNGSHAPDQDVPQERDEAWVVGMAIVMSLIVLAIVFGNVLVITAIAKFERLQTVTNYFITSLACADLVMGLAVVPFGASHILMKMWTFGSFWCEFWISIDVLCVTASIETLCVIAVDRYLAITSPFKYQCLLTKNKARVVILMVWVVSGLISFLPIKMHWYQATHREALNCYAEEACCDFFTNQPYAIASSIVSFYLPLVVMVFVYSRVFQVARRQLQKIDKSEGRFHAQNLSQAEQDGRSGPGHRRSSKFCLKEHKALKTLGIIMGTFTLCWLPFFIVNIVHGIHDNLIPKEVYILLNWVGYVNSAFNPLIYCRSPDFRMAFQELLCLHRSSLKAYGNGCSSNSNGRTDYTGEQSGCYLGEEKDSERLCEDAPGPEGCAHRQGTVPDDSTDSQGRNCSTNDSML
Method in brief: as §1

T1 sequence (Q28044 whole entry): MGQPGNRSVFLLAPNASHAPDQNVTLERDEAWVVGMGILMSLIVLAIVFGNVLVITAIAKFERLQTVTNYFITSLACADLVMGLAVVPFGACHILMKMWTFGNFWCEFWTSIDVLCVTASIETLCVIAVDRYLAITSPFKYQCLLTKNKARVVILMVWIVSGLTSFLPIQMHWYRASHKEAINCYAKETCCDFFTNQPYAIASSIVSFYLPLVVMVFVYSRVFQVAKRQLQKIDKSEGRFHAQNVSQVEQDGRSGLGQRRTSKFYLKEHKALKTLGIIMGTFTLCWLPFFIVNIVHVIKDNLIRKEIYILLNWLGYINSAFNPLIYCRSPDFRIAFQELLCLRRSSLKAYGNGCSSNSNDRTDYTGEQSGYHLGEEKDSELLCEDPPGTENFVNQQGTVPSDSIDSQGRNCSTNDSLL

SMILES | EC50 [1] [nM] | EC50 [2] [nM]
Cc1nn(C)cc1CCC(C)N[C@@H]1CCn2c(=O)[nH]c3cccc(c32)[C@H]1O (single isomer, unassigned) [Example 59] | 20 | 17
CC(CCc1c[nH]c2cc(C#N)ccc12)N[C@@H]1CCn2c(=O)[nH]c3cccc(c32)[C@H]1O (single isomer, unassigned) [Example 60] | 23 | 13
CC(CCn1cncn1)N[C@@H]1CCn2c(=O)[nH]c3cccc(c32)[C@H]1O (single isomer, unassigned) [Example 61] | 28 | 18
CC(CCc1c[nH]c2ccncc12)N[C@@H]1CCn2c(=O)[nH]c3cccc(c32)[C@H]1O (single isomer, unassigned) [Example 62] | 35 | 28
Cc1cc(CCC(C)N[C@@H]2CCn3c(=O)[nH]c4cccc(c43)[C@H]2O)ccn1 (single isomer, unassigned) [Example 63] | 81 | 25
Cc1cc(C)n(CCC(C)N[C@@H]2CCn3c(=O)[nH]c4cccc(c43)[C@H]2O)n1 (single isomer, unassigned) [Example 64] | 169 | 188
C[C@H](CCc1c[nH]c2ccccc12)N[C@@H]1CCn2c(=O)[nH]c3cccc(c32)[C@H]1O [Example 4e, 7-Hydroxy-6-{[3-(1H-indol-3-yl)-1-methylpropyl]amino}-4,5,6,7-tetrahydroimidazo[4,5,1-jk][1]benzazepin-2(1H)-one] | 1.1 | 3.7
C[C@H](CCc1c[nH]c2ccccc12)N[C@@H]1CCn2c(=O)[nH]c3cccc(c32)[C@H]1O [Example 4f, 7-Hydroxy-6-{[3-(1H-indol-3-yl)-1-methylpropyl]amino}-4,5,6,7-tetrahydroimidazo[4,5,1-jk][1]benzazepin-2(1H)-one] | 1.7 | 2.5
CNc1nc(CC(C)NC2CCn3c(=O)[nH]c4cccc(c43)C2O)ns1 (centres unmarked) [Example 10, 7-Hydroxy-6-({1-methyl-2-[5-(methylamino)-1,2,4-thiadiazol-3-yl]ethyl}amino)-4,5,6,7-tetrahydroimidazo[4,5,1-jk][1]benzazepin-2(1H)-one] | 497 | 399
CC(Cc1ccco1)NC1CCn2c(=O)[nH]c3cccc(c32)C1O (centres unmarked) [Example 11, 6-{[2-(2-Furyl)-1-methylethyl]amino}-7-hydroxy-4,5,6,7-tetrahydroimidazo[4,5,1-jk][1]benzazepin-2(1H)-one] | 108 | 64
CC(CCc1nc2ccccc2[nH]1)NC1CCn2c(=O)[nH]c3cccc(c32)C1O (centres unmarked) [Example 12, 6-{[3-(1H-Benzimidazol-2-yl)-1-methylpropyl]amino}-7-hydroxy-4,5,6,7-tetrahydroimidazo[4,5,1-jk][1]benzazepin-2(1H)-one] | 34 | 53
CC(CCc1ccccn1)NC1CCn2c(=O)[nH]c3cccc(c32)C1O (centres unmarked) [Example 13, 7-Hydroxy-6-[(1-methyl-3-pyridin-2-ylpropyl)amino]-4,5,6,7-tetrahydroimidazo[4,5,1-jk][1]benzazepin-2(1H)-one] | 356 | 184
CC(CCc1cn(C)c2ccccc12)NC1CCn2c(=O)[nH]c3cccc(c32)C1O (centres unmarked) [Example 14a, 7-Hydroxy-6-{[1-methyl-3-(1-methyl-1H-indol-3-yl)propyl]amino}-4,5,6,7-tetrahydroimidazo[4,5,1-jk][1]benzazepin-2(1H)-one] | 18 | 26
CC(CCn1cccn1)NC1CCn2c(=O)[nH]c3cccc(c32)C1O (centres unmarked) [Example 15, 7-Hydroxy-6-{[1-methyl-3-(1H-pyrazol-1-yl)propyl]amino}-4,5,6,7-tetrahydroimidazo[4,5,1-jk][1]benzazepin-2(1H)-one] | 161 | 98
O=c1[nH]c2cccc3c2n1CCC(NCCCc1c[nH]c2ccccc12)C3O (centres unmarked) [Example 19, 7-Hydroxy-6-{[3-(1H-indol-3-yl)propyl]amino}-4,5,6,7-tetrahydroimidazo[4,5,1-jk][1]benzazeopin-2(1H)-one] | 50 | 65
CC(CCc1nccs1)NC1CCn2c(=O)[nH]c3cccc(c32)C1O (centres unmarked) [Example 24a, 7-Hydroxy-6-{[1-methyl-3-(1,3-thiazol-2-yl)propyl]amino}-4,5,6,7-tetrahydroimidazo[4,5,1-jk][1]benzazepin-2(1H)-one] | 409 | 464
CC(CCc1c[nH]c2ccncc12)NC1CCn2c(=O)[nH]c3cccc(c32)C1O (centres unmarked) [Example 31a, 7-Hydroxy-6-{[1-methyl-3-(1H-pyrrolo[3,2-c]pyridin-3-yl)propyl]amino}-4,5,6,7-tetrahydroimidazo[4,5,1-jk][1]benzazepin-2(1H)-one] | 197 | 146
CC(CCc1c[nH]c2cnccc12)NC1CCn2c(=O)[nH]c3cccc(c32)C1O (centres unmarked) [Example 32a, 7-Hydroxy-6-{[1-methyl-3-(1H-pyrrolo[2,3-c]pyridin-3-yl)propyl]amino}-4,5,6,7-tetrahydroimidazo[4,5,1-jk][1]benzazepin-2(1H)-one] | 52 | 92
CC(CCc1ccc[nH]c1=O)NC1CCn2c(=O)[nH]c3cccc(c32)C1O (centres unmarked) [Example 36, 7-Hydroxy-6-{[1-methyl-3-(2-oxo-1,2-dihydropyridin-3-yl)propyl]amino}-4,5,6,7-tetrahydroimidazo[4,5,1-jk][1]benzazepin-2(1H)-one] | 59 | 56
Cc1c(CC[C@@H](C)N[C@@H]2CCn3c(=O)[nH]c4cccc(c43)[C@H]2O)cnn1C [Example 53, (6R,7R)-6-{[(1R)-3-(1,5-Dimethyl-1H-pyrazol-4-yl)-1-methylpropyl]amino}-7-hydroxy-4,5,6,7-tetrahydroimidazo[4,5,1-jk][1]benzazepin-2(1H)-one] | 2 | 2.8
C[C@H](CCc1cnco1)N[C@@H]1CCn2c(=O)[nH]c3cccc(c32)[C@H]1O [Example 66, (6R,7R)-7-hydroxy-6-{[(1R)-1-methyl-3-(1,3-oxazol-5-yl)propyl]amino}-4,5,6,7-tetrahydroimidazo[4,5,1-jk][1]benzazepin-2(1H)-one] | 18.7 | 6.2
COc1ncc(CC[C@@H](C)N[C@@H]2CCn3c(=O)[nH]c4cccc(c43)[C@H]2O)s1 [Example 67, (6R,7R)-7-hydroxy-6-{[(1R)-3-(2-methoxy-1,3-thiazol-5-yl)-1-methylpropyl]amino}-4,5,6,7-tetrahydroimidazo[4,5,1-jk][1]benzazepin-2(1H)-one] | 2.7 | 2.7
